pIC50: −log10 of the molar value.
Legend:
RS4;11-G101V cell line = assay: In vitro anti-proliferation assay (ATPlite) in RS4;11 with G101V mutation; type: cell-based; details: about 72 hours incubation
Protocol: (§1) Cell antiproliferation was assayed by PerkinElmer ATPlite™ Luminescence Assay System. Briefly, the various test cancer cell lines were plated at a density of about 1×10^4 cells per well in Costar 96-well plates, and were incubated with different concentrations of compounds for about 72 hours in medium supplemented with 5% FBS or 10% normal human serum(NHS). One lyophilized substrate solution vial was then reconstituted by adding 5 mL of substrate buffer solution, and was agitated gently until the solution was homogeneous. About 50 μL of mammalian cell lysis solution was added to 100 μL of cell suspension per well of a microplate, and the plate was shaken for about five minutes in an orbital shaker at ˜700 rpm. This procedure was used to lyse the cells and to stabilize the ATP. Next, 50 μL substrate solution was added to the wells and microplate was shaken for five minutes in an orbital shaker at ˜700 rpm. Finally, the luminescence was measured by a PerkinElmer TopCount® Microplate Scintillation Counter. Such assays, carried out with a range of doses of test compounds, allowed the determination of the cellular anti-antiproliferative IC50 of the compounds of the present invention. The following table lists the IC50 values of certain compounds of the invention.
The following table lists the IC50 values of the in vitro anti-proliferation assay in RS4;11-G101V cell line.

CEM(R248Q) = assay: In vitro anti-proliferation assay (ATPlite) in p53 mutant cell line CEM(R248Q); type: cell-based; details: Mutation R175H, about 72 hours incubation
Protocol: as §1
(§2) The following table lists the IC50 values of another in vitro anti-proliferation assay in different p53 mutant cell lines.

KASUMI-1 = assay: In vitro anti-proliferation assay (ATPlite) in p53 mutant cell line KASUMI-1; type: cell-based; details: Cell line KASUMI-1, Mutation R248Q, about 72 hours incubation
Protocol: as §1, §2

SUP-T1 = assay: In vitro anti-proliferation assay (ATPlite) in p53 mutant cell line SUP-T1; type: cell-based; details: Cell line SUP-T1, Mutation R273H, about 72 hours incubation
Protocol: as §1, §2

DB = assay: In vitro anti-proliferation assay (ATPlite) in p53 mutant cell line DB; type: cell-based; details: Mutation R248Q, about 72 hours incubation
Protocol: as §1, §2

Mice PK study = type: in vivo; details: CD-1 mouse
Protocol: The pharmacokinetics of compounds were evaluated in CD-1 mouse via Intravenous and Oral Administration. The IV dose was administered as a slow bolus in the Jugular vein, and oral doses were administered by gavage. The formulation for IV dosing was 5% DMSO in 20% HPBCD in water, and the PO formulation was 2.5% DMSO, 10% EtOH, 20% Cremphor EL, 67.5% D5W. The PK time point for the IV arm was 5, 15, 30 min, 1, 2, 4, 6, 8, 12, 24 hours post dose, and for PO arm was 15, 30 min, 1, 2, 4, 6, 8, 12, 24 hours post dose. Approximately 0.03 mL blood was collected at each time point. Blood of each sample was transferred into plastic micro centrifuge tubes containing EDTA-K2 and collect plasma within 15 min by centrifugation at 4000 g for 5 minutes in a 4° C. centrifuge. Plasma samples were stored in polypropylene tubes. The samples were stored in a freezer at −75±15° C. prior to analysis. Concentrations of compounds in the plasma samples were analyzed using a LC-MS/MS method. WinNonlin (Phoenix™, version 6.1) or other similar software was used for pharmacokinetic calculations. The following pharmacokinetic parameters were calculated, whenever possible from the plasma concentration versus time data: IV administration: Co, CL, Vd, T1/2, AUCinf, AUClast, MRT, Number of Points for Regression; PO administration: Cmax, Tmax, T1/2, AUCinf, AUClast, F %, Number of Points for Regression. The pharmacokinetic data was described using descriptive statistics such as mean, standard deviation.

SMILES | pIC50 (RS4;11-G101V cell line) | pIC50 (CEM(R248Q)) | pIC50 (KASUMI-1; Homo sapiens) | pIC50 (SUP-T1; Homo sapiens) | pIC50 (DB; Homo sapiens) | pIC50 (KASUMI-1) | pIC50 (SUP-T1) | pIC50 (DB) | Bioavailabilty (Mice PK study; Oral, 100 mpk) | AUClas (Mice PK study; Oral, 100 mpk, plasma) | bioavailability (in words) (Mice PK study; oral)
COCC1(CO)C(=O)C2CCN1CC2 (centres unmarked) [APR-246, reference compound] | 5.75 |  |  |  |  |  |  |  |  |  | 
COC[C@@]1(CO)C(=O)C2CCN1CC2 [ARP-246-S, (S)-2-(hydroxymethyl)-2-(methoxymethyl)quinuclidin-3-one, reference compound] |  | 6.31 | 6.00 | 5.32 | 5.52 |  |  |  |  |  | 
COC[C@]1(CO)C(=O)[C@H]2CC[N@]1[C@H](C)C2 [Example 17, (1R,2R,4S,6R)-2-(hydroxymethyl)-2-(methoxymethyl)-6-methylquinuclidin-3-one] | 6.14 | 6.25 |  |  |  | 6.00 | 5.68 | 5.43 | 79% | 26,093 h*ng/ml | excellent bioavailable
COC[C@@]1(CO)C(=O)[C@@H]2CC[N@@]1[C@@H](C)C2 [Example 18, (1S,2S,4R,6S)-2-(hydroxymethyl)-2-(methoxymethyl)-6-methylquinuclidin-3-one] | 5.74 | 6.16 |  |  |  | 5.70 | 5.59 | 5.54 |  |  | 
COC[C@]1(CO)C(=O)[C@@H]2CC[N@@]1[C@@H](C)C2 [Example 27, (1S,2R,4R,6S)-2-(hydroxymethyl)-2-(methoxymethyl)-6-methylquinuclidin-3-one] |  | 5.80 |  |  |  | 5.59 | 5.48 | 5.48 |  |  | 
COC[C@@]1(CO)C(=O)[C@H]2CC[N@]1[C@H](C)C2 [Example 28, (1R,2S,4S,6R)-2-(hydroxymethyl)-2-(methoxymethyl)-6-methylquinuclidin-3-one] |  | 5.35 |  |  |  | 5.12 | 4.90 | 4.74 |  |  | 

— patent US20240217964A1, “QUINUCLIDINONE ANALOGUES AS ANTICANCER AGENTS” (Newave Pharmaceutical Inc., priority 2021, published 2024)
